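Cultured in 96-well plates, cells were exposed to test compound for 48 hours across five concentrations. GI50 is the concentration that inhibits growth by half. TGI denotes the concentration required for complete inhibition of growth.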
Tests used:
Assay in all cases: NCI-60 cell line screen, 48 h
SN12C renal = system: SN12C renal
M14 melanoma = system: M14 melanoma
HS 578T breast = system: HS 578T breast
MALME-3M melanoma = system: MALME-3M melanoma
RXF 393 renal = system: RXF 393 renal
PC-3 prostate = system: PC-3 prostate
COLO 205 colon = system: COLO 205 colon
HL-60(TB) leukemia = system: HL-60(TB) leukemia
SF-268 CNS = system: SF-268 CNS
UO-31 renal = system: UO-31 renal

SMILES	TGI (SN12C renal) [µM]	TGI (M14 melanoma) [µM]	GI50 (HS 578T breast) [µM]	TGI (HS 578T breast) [µM]	TGI (MALME-3M melanoma) [µM]	TGI (RXF 393 renal) [µM]	GI50 (PC-3 prostate) [µM]	TGI (PC-3 prostate) [µM]	TGI (COLO 205 colon) [µM]	TGI (HL-60(TB) leukemia) [µM]	TGI (SF-268 CNS) [µM]	GI50 (SN12C renal) [µM]	GI50 (M14 melanoma) [µM]	GI50 (RXF 393 renal) [µM]	GI50 (COLO 205 colon) [µM]	GI50 (UO-31 renal) [µM]	TGI (UO-31 renal) [µM]	GI50 (SF-268 CNS) [µM]	GI50 (MALME-3M melanoma) [µM]	GI50 (HL-60(TB) leukemia) [µM]
Cc1cc(O)c2c(c1)C(=O)c1cc(O)cc(O)c1C2=O	> 78.9	60.9	26.2	82.4	50.6	> 100	25	> 100	42	76.5	97.5									
O=S(=O)(NC(=S)Nc1ccccc1)c1ccc(N2N=C3c4ccccc4CC3C2c2cccs2)cc1 (stereo not given)	43.2	46.3	20.9	68		> 100	22.9	54.4	> 100		> 100	21.4	22.7	78.1	41.9	51.2	> 100	30.7		
O=C(O)c1cc2ccccc2c(N=Nc2c([N+](=O)[O-])cc([N+](=O)[O-])cc2S(=O)(=O)O)c1O	> 100	> 100		> 100	> 100	> 100		> 100	> 100		> 100						> 100			
N/N=C1\c2ccccc2C2/C(=N\N)c3ccccc3C12 (stereo not given)	> 100	> 100			> 100	> 100			> 100	> 100	> 100									
CC1C=C(OC(=O)c2ccccc2)C(=O)C(n2cc(F)c(=O)n(C(=O)c3ccccc3)c2=O)O1 (stereo not given)	> 100	> 100			95.7	81.7			62.1	50.1							> 100			
CCOc1ccccc1NC(=O)CCc1nnc2s/c(=C\CCc3ccccc3)c(=O)n12	> 100	> 100			> 100	> 100			> 100	> 100	> 100						> 100			
Cc1ccc(S(=O)(=O)Oc2ccc3c4c(c(=O)oc3c2)CCCCC4)cc1	> 100	> 100	96.2	> 100	> 100		4.26	> 100	> 100		> 100	> 100	> 100		4.05	> 100	> 100	> 100	> 100	
CC1CCCC(C(O)CC2CC(=O)N(c3ccccc3)C(=O)C2)C1=O (stereo not given)	> 100	> 100			> 100	> 100			> 100	> 100	> 100						> 100			
COc1cc2c3c(n(CCCN4CCN(C)CC4)c(=O)c2cc1OC)-c1cc2c(cc1C3=O)OCO2	24.1		13.9	73	42.3	55	15.8	36.4	40.3	57.6	41.8	11.4		20.5	10.3	20.6	62.8	11.9	24.8	19.5
